From the supplement of paper PMC10290057
Where a name gives a salt, the structure may show the parent alone.

What was measured:
[1] = tested on: HCT116; assay: AC50 cell viability (CellTiter-Glo); higher = less potent; settings: 48 h
[2] = tested on: HCT116; assay: efficacy (fitted maximal change in viability relative to DMSO control); higher = less cytotoxic (negative = loss of viability); settings: 48 h
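Throughout, for AC50 cell viability (CellTiter-Glo): HCT116 colorectal carcinoma cells screened at five concentrations per compound, luminescent viability scaled between DMSO wells and empty wells on each plate, curves fitted per compound.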
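Throughout, for efficacy (fitted maximal change in viability relative to DMSO control): Luminescence-based viability readout, five doses per compound, normalized against on-plate DMSO and empty-well controls, followed by dose-response curve fitting for every drug.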

| Compound | AC50 cell viability [1] [µM] | efficacy [2] [%] |
| --- | --- | --- |
| C[C@@H](C(=O)Nc1ccc(Cl)cc1)[C@H]1CC[C@@H](c2ccnc3ccc(F)cc32)CC1 | 18.6 | -47.3 |
| O=C(Nc1ccc([N+](=O)[O-])cc1Cl)c1cc(Cl)ccc1O [Niclosamide] | 1.05 | -90.8 |
| Cc1cc(CN2CCN(c3c(Br)cnc4[nH]c(-c5ccc(N6CCN(C)CC6)cc5)nc34)CC2)no1 | 5.25 | -119 |
| Cc1ccc2nc(NCCN)c3ncc(C)n3c2c1 | 2.35 | -78.2 |
| OCCn1cc(-c2ccc3c(c2)CC/C3=N\O)c(-c2ccncc2)n1 | 4.68 | -55.7 |
| CC(C)(C)NC(=O)c1cncn1C1CCN(c2ccc(-c3nnc(C(F)(F)F)o3)cn2)CC1 [WNK-463] | 3.72 | -49.1 |
| CC(C)C[C@@H](C(=O)N[C@H](C(=O)OC1CCCC1)c1ccccc1)[C@H](O)C(=O)NO [Tosedostat] | 4.17 | -95.7 |
| CN(C)C[C@@H]1CC[N]2C=C(C3=C2C=CC=C3)C/4=C(/C(=O)NC4=O)C5=C[N](CCO1)C6=C5C=CC=C6 [Ruboxistaurin mesylate] | 8.33 | -102 |
| CN(C)CCCOc1ccc(-c2ccc3ncc4c(c3c2)n(C2CCOCC2)c(=O)n4C)cn1 [AZD-0156] | 7.23 | -86 |
| O=C(NO)C1(C[S+](=O)([O-])c2ccc(Oc3ccc(Cl)cc3)cc2)CCOCC1 [CTS-1027] | 20.9 | -61.5 |
| CCN(CC)CCCC(C)Nc1c2ccc(Cl)cc2nc2ccc(OC)cc12.Cl.Cl.O.O (stereo not drawn) [Quinacrine] | 8.33 | -90.5 |
| O=C(Nc1ccc([S+](=O)([O-])N2CCOCC2)cc1)c1cc(Cl)ccc1N[S+](=O)([O-])c1ccc(Cl)s1 [Ataciguat] | 23.5 | -76 |
| COc1cc2c(cc1O)CCN[C@]21CS[C@@H]2c3c(OC(C)=O)c(C)c4c(c3[C@H](COC1=O)N1[C@@H]2[C@H]2c3c(cc(C)c(OC)c3O)C[C@@H]([C@@H]1O)N2C)OCO4 [Trabectedin] | 0.0121 | -69.8 |
| C[C@@H]1O[C@@H](O[C@@H]2C=C3CC[C@@H]4[C@H](CC[C@]5(C)[C@@H](c6ccc(=O)oc6)CC[C@]45O)[C@@]3(C)CC2)[C@H](O)[C@H](O)[C@H]1O [Proscillaridin] | 0.00833 | -82.5 |
| CN1c2ccccc2C(=O)N2CCc3c([nH]c4ccccc34)C21 (stereo not drawn) [Evodiamine] | 1.66 | -64.2 |
| CNC(=O)c1cc(COc2nnc(Nc3ccc(Cl)cc3)c3ccoc23)ccn1 [Telatinib] | 20.9 | -70.3 |
| CC(C)C[C@@H](C=O)NC(=O)[C@H](CC(C)C)NC(=O)[C@H](CC(C)C)NC(=O)OCc1ccccc1 [MG-132] | 0.468 | -89.4 |
| CC[C@@]1(O)C(=O)OCC/2=C1/C=C3\N(CC4=CC5=CC(=CC=C5N=C34)O)C2=O [10-hydroxycamptothecin] | 0.105 | -79.9 |
| Cc1cc(-c2cnn3c(NC[C@H]4C[C@@](C)(O)C4)cc(Oc4cccnc4)nc23)ccc1C(=O)NC1CC1 | 0.934 | -56.6 |
| Cc1nc(Nc2ncc(C(=O)Nc3c(C)cccc3Cl)s2)cc(N2CCN(CCO)CC2)n1 [Dasatinib] | 14.8 | -81.1 |
| CC#C[C@@H](CC(=O)O)c1ccc(OCc2cccc(-c3ccc(C(F)(F)F)cc3)c2)cc1 [AMG-837] | 20.9 | -40.8 |
| Nc1n[n+]([O-])c2ccccc2[n+]1[O-] [Tirapazamine] | 13.2 | -30.4 |

| Compound | AC50 cell viability [1] [µM] | efficacy [2] [%] |
| --- | --- | --- |
| FC(F)(F)c1ccc(/C=C/c2nc(COc3ccc(CCCCn4ccnn4)cc3)co2)cc1 [Mubritinib] | 0.0209 | -38.5 |
| COc1ccc(CCN(C)CCCC(C#N)(c2ccc(OC)c(OC)c2)C(C)C)cc1OC (stereo not drawn) [Verapamil] | 18.6 | – |
| Cc1ccc(C(=O)Nc2ccc(CN3CCN(C)CC3)c(C(F)(F)F)c2)cc1C#Cc1cnc2cccnn12 [Ponatinib] | 1.48 | – |
| CCCCC(F)(F)[C@@]1(O)CC[C@H]2[C@@H](CC(=O)[C@@H]2CCCCCCC(=O)O)O1 [Lubiprostone] | – | -6.29 |
| COc1cc(CNC(=O)CCCC/C=C/C(C)C)ccc1O [Capsaicin] | – | -16.7 |
| C[C@]12CC[C@H]3[C@@H](CCC/4=C/C(=O)CC[C@]34C)[C@@H]1CC[C@@H]2OC(=O)CCC5CCCC5 [Testosterone cypionate] | – | -12 |
| CC1(C)NC(=O)N(c2ccc([N+](=O)[O-])c(C(F)(F)F)c2)C1=O [Nilutamide] | – | -35.5 |
| OC(=O)C/1=C/C(=O)NC(=O)N1 [Orotic acid] | – | -16.5 |
| CCn1c(=O)c2c(nc(/C=C/c3ccc(OC)c(OC)c3)n2C)n(CC)c1=O [Istradefylline] | – | -9.26 |
| Cc1cn[nH]c1 [Fomepizole] | – | -18.8 |
| COc1cc2c(cc1OC)CC(=O)N(CCCN(C)C[C@H]1Cc3cc(OC)c(OC)cc31)CC2 [Ivabradine hydrochloride] | – | -21.3 |
| COC1=CC=CC=C1C2=CC=CC(=C2)C/3=C(O)/C4=CC(=C(Cl)C=C4NC3=O)C#N [FASN MRK] | – | -12.8 |
| Nc1nccc(-c2ccc3noc(-c4ccc(Cl)cc4)c3c2)n1 [Pim 1 Inhibitor 2] | – | -55 |
| C[C@]12CC[C@@H]3c4ccc(O)cc4CC[C@H]3[C@@H]1[C@@H](O)[C@@H](O)[C@@H]2O [Estetrol] | – | -16.1 |
| COc1nc(-c2ccc3c(c2)OCO3)n(-c2ccc(NC(=O)CSc3ccccc3)cc2)n1 [Secin H3] | – | -15.5 |
| C[C@@H]1Cc2c([nH]c3ccccc23)[C@@H](c2c(F)cc(/C=C/C(=O)O)cc2F)N1CC(C)(C)F [AZD-9496 maleate] | – | -13.1 |
| C[C@@H]1C[C@H]2[C@@H]3\C=C(C)/C4=C/C5=C(C[C@]4(C)[C@H]3[C@@H](O)C[C@]2(C)[C@@]1(O)C(=O)COC(C)=O)C=N[N]5C6=CC=CC=C6 [Cortivazol] | – | -25.2 |
| CN1CCN(CC1)C\2=C\3/C=C(/C)SC3=N/C4=CC=CC=C4N2 | – | -17.1 |
| COc1ccc(CNC(=O)c2cc(-c3cncc(Cl)c3)cnc2-c2ccccn2)nc1OC [MK-1064] | – | 12.4 |
| COC(=O)/C=C/C(=O)OC [Dimethyl fumarate] | – | -18.4 |
| CC(=O)Nc1ccc(O)cc1 [Acetaminophen] | – | 8.22 |
| CC/C(=C(/c1ccc(/C=C/C(=O)O)cc1)c1ccc2[nH]ncc2c1)c1ccc(F)cc1Cl [Brilanestrant] | – | -35.5 |

| Compound | AC50 cell viability [1] [µM] | efficacy [2] [%] |
| --- | --- | --- |
| N[S+](=O)([O-])c1cc2c(cc1Cl)NCN[S+]2(=O)[O-] [Hydrochlorothiazide] | – | 7.16 |
| C[C@H]1C[C@H]2[C@@H]3CC[C@](O)(C(=O)CO)[C@@]3(C)C[C@H](O)[C@@H]2[C@@]\4(C)/C=C\C(=O)\C=C14 [Methylprednisolone] | – | 20 |
| COc1cc(OCc2cccc(-c3ccccc3)c2C)cc(OC)c1CN1CCCC[C@H]1C(=O)O [PD-1/PD-L1 Inhibitor 1] | – | -62 |
| C=C[C@H]1CN2CCC1C[C@@H]2[C@@H](O)c1ccnc2ccccc12 (stereo partly drawn) [Cinchonine dihydrochloride] | – | -36.1 |
| CCN[C@H]1C[C@H](C)[S+](=O)([O-])c2sc([S+](N)(=O)[O-])cc21 [Dorzolamide hydrochloride] | – | -11 |
| O=C(NC[C@H]1CN(c2ccc(N3CCOCC3=O)cc2)C(=O)O1)c1ccc(Cl)s1 [Rivaroxaban] | – | -24.9 |
| NC(=O)c1ncn([C@@H]2O[C@H](CO)[C@@H](O)[C@H]2O)c1N [Acadesine] | – | 7.93 |
| CCC[C@H](N[C@@H](C)C(=O)N1[C@H](C(=O)O)C[C@@H]2CCCC[C@@H]21)C(=O)OCC [Perindopril] | – | 9 |
| Cc1ccc(C(=O)Nc2ccc([S+](=O)([O-])O)c3cc([S+](=O)([O-])O)cc([S+](=O)([O-])O)c23)cc1NC(=O)c1cccc(NC(=O)Nc2cccc(C(=O)Nc3cc(C(=O)Nc4ccc([S+](=O)([O-])O)c5cc([S+](=O)([O-])O)cc([S+](=O)([O-])O)c45)ccc3C)c2)c1 [Suramin sodium] | – | -20.9 |
| OC1=CC=C2\C3=C(CNCC3)/C(=O)OC2=C1C4OCCCO4 [BI09] | – | 9.24 |
| CC1=C(/C=C/C(C)=C/C=C/C(C)=C/C(=O)O)C(C)(C)CCC1 [Tretinoin] | – | -22.5 |
| CCC(C)N1\N=C/N(C1=O)C2=CC=C(C=C2)N3CCN(CC3)C4=CC=C(OC[C@H]5CO[C@@](C[N]6C=NC=N6)(O5)C7=CC=C(Cl)C=C7Cl)C=C4 (stereo partly drawn) [Itraconazole] | – | -32.6 |
| O=C(/C=C/N1C[C@H]2C[C@@H]1CN2c1ccccn1)c1ccccc1O [PFI-3] | – | -9.44 |
| Nc1nc(Cl)nc2c1ncn2[C@@H]1O[C@H](CO)[C@@H](O)[C@@H]1F [Clofarabine] | – | -51.1 |
| Cc1cc(C)c2c(c1)[C@@H](N(Cc1cc(C(F)(F)F)cc(C(F)(F)F)c1)c1nnn(C)n1)CCCN2C[C@H]1CC[C@H](C(=O)O)CC1 | – | -31.2 |
| CCN1CCCC1CNC(=O)c1cc([S+](=O)([O-])CC)c(N)cc1OC (stereo not drawn) [Amisulpride] | – | -6.46 |
| CC(C)c1cccc(C(C)C)c1O [Propofol] | – | -8.33 |
| CCC(=O)NC[C@H](Cc1ccc(OCCc2nc(-c3ccccc3)oc2C)cc1)N/C(C)=C\C(=O)c1ccc(C(F)(F)F)cc1 [GW-6471] | – | -30.2 |
| O=C(O)c1ccc(O)c2ncccc12 [IOX-1] | – | -36.7 |
| O=[S+]([O-])(O)c1ccc2cc(/N=N/c3cc([S+](=O)([O-])O)c4cccnc4c3O)ccc2c1 | – | -23.5 |
| CN1CCN(C(=O)[C@H]2[C@@H](C(=O)O)[C@H]3CC[C@@H]2O3)CC1 [EMPM] | – | -12 |
